Data from patent publication US9429574B2, “Cancer therapies and methods” (priority 2011, dated 2016).
“Also recorded” adds a separate entry of the source.

Experiments:
Format in all cases: cell-based, human
MCF7-SNF5-KD#73 cells = assay: Apoptosis assay (Annexin V/7AAD flow cytometry) in tetracycline-induced SMARCB1 knock-down MCF7 cells; conditions: 10 nM for 12 hours; Tet-induced SMARCB1 knock-down vs non-induced MCF7 cells
Description: 500,000 MCF7-SNF5-KD#73 cells (Xu et al., 2010) were plated into T75 tissue culture flasks (Techno Plastic Products). For knockdown experiments, tetracycline (1 μg/mL) was added on day 1 and day 3. In case of Bortezomib (BTZ)-treated cells, the drug (Santa Cruz Biotechnology, final concentration 10 nM) was added for 12 hours on day 4 (at 70-85% confluency).
(§1) Similarly, G401, A498, 786-O, BT12, SW1783, and DAOY cells were plated into 6-well-plates (200,000 cells per well) and grown for 24 hours before 10 nM BTZ, 30 nM Carfilzomib (CFZ, from Active Biochemicals Co.), or DMSO as vehicle control was added to the cell culture media for another 24 hours. Subsequently, cells were carefully washed with PBS and dissociated by trypsinization. Aliquots of single cell suspensions containing 1×10^5 cells in 100 μL PBS were stained with AnnexinV-APC and 7AAD according to the manufacturer's instructions (BD Biosciences) for 15 min at RT. Subsequently, 400 μL of AnnexinV binding buffer was added (10 mM Hepes, 140 mM NaCl and 2.5 mM CaCl2), cell suspensions were placed on ice and immediately analyzed with a FACSCalibur flow cytometer (BD Biosciences). The data analysis was performed using the FlowJo software (Tree Star). For statistical analyses, an unpaired t-test was conducted using Prism 5.0 (GraphPad).

BT12 cells = assay: Apoptosis assay (Annexin V/7AAD flow cytometry) in brain AT/RT cell line; conditions: BT12 vs DMSO and vs SMARCB1-positive cell lines
Description: as §1

G401 cells = assay: Apoptosis assay (Annexin V/7AAD flow cytometry) in kidney MRT cell line; conditions: G401 vs DMSO and vs SMARCB1-positive cell lines
Description: as §1

[1] = test system: eIF2alpha phosphorylation; assay: Western blot of eIF2alpha phosphorylation upon thapsigargin ER stress induction; conditions: three hour TG exposure
Description: Cells were harvested at 50-70% confluency, pelleted by centrifugation, and dissolved in RIPA buffer (10 mM Tris/HCl (pH 7.5), 1 mM EDTA, 1% Triton X-100, 0.1% SDS, 0.1% sodium deoxycholate, 100 mM NaCl) supplemented with protease inhibitors (2 mM PMSF and 1× Complete Mini, Roche). Supernatants were collected, protein concentrations were determined using the BCA assay (Pierce/Thermo Scientific), and proteins were separated in a 10% SDS-polyacrylamide gel. Western blotting followed standard protocols using nitrocellulose membranes (Amersham/GE Healthcare). Signal intensities were analyzed with ImageJ (http://rsb.info.nih.gov/ij/).
Antibodies used were: anti-BAF47 (SMARCB1/SNF5; BD Biosciences, San Diego, Calif.), anti-phospho-eIF2alpha (119A11; Cell Signaling), anti-beta actin-HRP (Abcam, Cambridge, UK).
The CHLA-02-ATRT cell line was obtained from ATCC and kept in neurosphere medium (DMEM/F12 (1:1) with Glutamax, B27, penicillin (100 units/mL), streptomycin (100 μg/mL; all from Invitrogen), HEPES (10 mmol/L), Partricin (0.5 μg/mL, Biochrom); insulin (20 μg/mL; Sigma Aldrich), recombinant human epidermal growth factor (EGF; 20 ng/mL), and rhFGFbasic (20 ng/mL; PAN Biotech)). The human malignant rhabdoid tumor cell line LM (provided by Rupert Handgretinger, Tuebingen, Germany) was kept according to Versteege et al. (Nature 1998). DAOY medulloblastoma cells (provided by Michael Grotzer, Zurich, Switzerland) were kept in EMEM (PAA) supplemented with 10% FBS (Biochrom), 2 mM glutamine, 100 units/mL Penicillin/Streptomycin (Invitrogen), and 2.5 μg/mL Amphotericin B (PAA). Hs683 glioma cell lines (provided by Matthias Simon, Bonn, Germany) were kept in DAOY medium with 1 mM sodium pyruvate, MEM non-essential amino acids, and MEM vitamin solution (all from Invitrogen). SW1783 glioblastoma cells (provided by Matthias Simon, Bonn, Germany) and BT12 AT/RT cells (provided by Michael Grotzer, Zurich, Switzerland) were kept in DMEM (1 g/l glucose) supplemented with 10% FBS (Biochrom), 2 mM glutamine, 100 units/ml Penicillin/Streptomycin (Invitrogen) and 2.5 μg/ml Amphotericin B (PAA).
MCF7-SNF5-KD#73 cells (Xu et al., 2010) were cultured in DMEM (4.5 g/L glucose, Invitrogen), 10% FBS (Tet System Approved, Clontech), 2 mM glutamine, and 100 units/mL Penicillin/Streptomycin (Invitrogen). For the knock-down of SMARCB1, tetracycline (1 μg/mL) was added on day 1 and 3, and cells harvested at day 4. At day 4, cells were treated with DTT (5 mM) or Thapsigargin (5 μM). 786-O and A-498 cells (both from Angelika Toelle, Charité Berlin, Germany), HepG2 cells (from Peter Nilsson-Ehle, Lund University, Sweden), and G401 (ATCC) were kept in RPMI1640 (PAA) supplemented with 10% FBS (Biochrom), 2 mM glutamine, 100 units/mL Penicillin/Streptomycin (Invitrogen), and 2.5 μg/mL Amphotericin B (PAA). A-204 (ATCC) were grown in McCoy's 5a modified medium supplemented with 10% FBS (Biochrom), 100 units/mL Penicillin/Streptomycin (Invitrogen), and 2.5 μg/mL Amphotericin B (PAA). All cells were kept in T75 tissue culture flasks (Techno Plastic Products).

[2] = 10 nM BTZ for 24 hours, listed as BTZ

SMILES: CC(C)C[C@H](NC(=O)[C@H](Cc1ccccc1)NC(=O)c1cnccn1)B(O)O [Bortezomib, [(1R)-3-methyl-1-({(2S)-3-phenyl-2-[(pyrazin-2-ylcarbonyl)-amino]propanoyl}amino)butyl]boronic acid]
- Apoptosis (Annexin V-positive and 7AAD-negative cells) (MCF7-SNF5-KD#73 cells): increased apoptosis
- Apoptosis (Annexin V-positive and 7AAD-negative cells) (BT12 cells; 10 nM BTZ for 24 hours): increased apoptosis
- Apoptosis (Annexin V-positive and 7AAD-negative cells) (BT12 cells; [2]): highest apoptosis
- Apoptosis (Annexin V-positive and 7AAD-negative cells) (G401 cells; 10 nM BTZ for 24 hours): increased apoptosis
- Apoptosis (Annexin V-positive and 7AAD-negative cells) (G401 cells; [2]): highest apoptosis

SMILES: C/C=C(/C)C(=O)O[C@H]1C(C)=C2[C@H]([C@@H]1OC(=O)CCCCCCC)[C@@](C)(OC(C)=O)C[C@H](OC(=O)CCC)[C@@]1(O)[C@H]2OC(=O)[C@@]1(C)O [TG, Thapsigargin]
- Fold-change of β-actin-normalized phosphorylated eIF2alpha signal intensities between TSG-treated and untreated cells ([1]; 786-O (SMARCB1-positive renal cell carcinoma)): 0.60
- Fold-change of β-actin-normalized phosphorylated eIF2alpha signal intensities between TSG-treated and untreated cells ([1]; A-204 (MRT, muscle origin, lacking SMARCB1)): 1.39
- Fold-change of β-actin-normalized phosphorylated eIF2alpha signal intensities between TSG-treated and untreated cells ([1]; A-498 (SMARCB1-positive renal cell carcinoma)): 1.12
- Fold-change of β-actin-normalized phosphorylated eIF2alpha signal intensities between TSG-treated and untreated cells ([1]; CHLA2 (AT/RT, lacking SMARCB1)): 5.89
- Fold-change of β-actin-normalized phosphorylated eIF2alpha signal intensities between TSG-treated and untreated cells ([1]; DAOY (SMARCB1-positive brain tumor)): 0.77
- Fold-change of β-actin-normalized phosphorylated eIF2alpha signal intensities between TSG-treated and untreated cells ([1]; G401 (MRT, kidney origin, lacking SMARCB1)): 2.49
- Fold-change of β-actin-normalized phosphorylated eIF2alpha signal intensities between TSG-treated and untreated cells ([1]; HepG2 (SMARCB1-positive hepatocellular carcinoma)): 0.56
- Fold-change of β-actin-normalized phosphorylated eIF2alpha signal intensities between TSG-treated and untreated cells ([1]; Hs683 (SMARCB1-positive brain tumor)): 0.81
- Fold-change of β-actin-normalized phosphorylated eIF2alpha signal intensities between TSG-treated and untreated cells ([1]; LM (MRT, liver origin, lacking SMARCB1)): 1.27
- Fold-change of β-actin-normalized phosphorylated eIF2alpha signal intensities between TSG-treated and untreated cells ([1]; SW1783 (SMARCB1-positive brain tumor)): 0.75

SMILES: CC(C)C[C@H](NC(=O)[C@H](CCc1ccccc1)NC(=O)CN1CCOCC1)C(=O)N[C@@H](Cc1ccccc1)C(=O)N[C@@H](CC(C)C)C(=O)[C@@]1(C)CO1 [Carfilzomib]
- Apoptosis (Annexin V-positive and 7AAD-negative cells) (BT12 cells; 30 nM CFZ for 24 hours): highest apoptosis; also recorded: increased apoptosis
- Apoptosis (Annexin V-positive and 7AAD-negative cells) (G401 cells; 30 nM CFZ for 24 hours): highest apoptosis; also recorded: increased apoptosis
